Read-outs that look alike come from different tables or passages of the source.
What was measured:
Type in all cases: binding
various enzymes [1] = biological target: various enzymes (Homo sapiens, UniProt P15056, V600E)
Protocol: (§1) Ambit profiling was conducted in accordance with the manufacturer's instructions.

various enzymes [2] = biological target: various enzymes (Homo sapiens, UniProt P10721, V559D/V654A)
Protocol: as §1

various enzymes [3] = biological target: various enzymes (Homo sapiens, UniProt Q13153); conditions: compound 1 uM
Protocol: as §1

various enzymes [4] = biological target: various enzymes (Homo sapiens, UniProt P36897); conditions: compound 1 uM
Protocol: as §1

various enzymes [5] = biological target: various enzymes (Homo sapiens, UniProt Q9H2G2); conditions: compound 1 uM
Protocol: as §1

various enzymes [6] = biological target: various enzymes (Homo sapiens, UniProt Q13705); conditions: compound 1 uM
Protocol: as §1

various enzymes [7] = biological target: various enzymes (Homo sapiens, UniProt Q9UKE5); conditions: compound 1 uM
Protocol: as §1

various enzymes [8] = biological target: various enzymes (Homo sapiens, UniProt Q13470); conditions: compound 1 uM
Protocol: as §1

various enzymes [9] = biological target: various enzymes (Homo sapiens, UniProt P00533, L861Q)
Protocol: as §1

various enzymes [10] = biological target: various enzymes (Homo sapiens, UniProt Q5S007); conditions: compound 1 uM
Protocol: as §1

various enzymes [11] = biological target: various enzymes (Homo sapiens, UniProt P33981); conditions: compound 1 uM
Protocol: as §1

various enzymes [12] = biological target: various enzymes (Homo sapiens, UniProt Q9UQM7); conditions: compound 1 uM
Protocol: as §1

various enzymes [13] = biological target: various enzymes (Homo sapiens, UniProt O15111); conditions: compound 1 uM
Protocol: as §1

various enzymes [14] = biological target: various enzymes (Homo sapiens, UniProt Q52WX2); conditions: compound 1 uM
Protocol: as §1

various enzymes [15] = biological target: various enzymes (Homo sapiens, UniProt P10721, A829P)
Protocol: as §1

various enzymes [16] = biological target: various enzymes (Homo sapiens, UniProt Q15746); conditions: compound 1 uM
Protocol: as §1

various enzymes [17] = biological target: various enzymes (Homo sapiens, UniProt P21802); conditions: compound 1 uM
Protocol: as §1

various enzymes [18] = biological target: various enzymes (Homo sapiens, UniProt P49674); conditions: compound 1 uM
Protocol: as §1

various enzymes [19] = biological target: various enzymes (Homo sapiens, UniProt Q9Y3S1); conditions: compound 1 uM
Protocol: as §1

various enzymes [20] = biological target: various enzymes (Homo sapiens, UniProt Q2M2I8); conditions: compound 1 uM
Protocol: as §1

various enzymes [21] = biological target: various enzymes (Homo sapiens, UniProt Q9P286); conditions: compound 1 uM
Protocol: as §1

various enzymes [22] = biological target: various enzymes (Homo sapiens, UniProt Q04759); conditions: compound 1 uM
Protocol: as §1

various enzymes [23] = biological target: various enzymes (Homo sapiens, UniProt P35968); conditions: compound 1 uM
Protocol: as §1

various enzymes [24] = biological target: various enzymes (Homo sapiens, UniProt P42345); conditions: compound 1 uM
Protocol: as §1

various enzymes [25] = biological target: various enzymes (Homo sapiens, UniProt Q9Y2I7); conditions: compound 1 uM
Protocol: as §1

various enzymes [26] = biological target: various enzymes (Homo sapiens, UniProt Q86UX6); conditions: compound 1 uM
Protocol: as §1

various enzymes [27] = biological target: various enzymes (Homo sapiens, UniProt Q16566); conditions: compound 1 uM
Protocol: as §1

various enzymes [28] = biological target: various enzymes (Homo sapiens, UniProt O76039); conditions: compound 1 uM
Protocol: as §1

various enzymes [29] = biological target: various enzymes (Homo sapiens, UniProt P10721, D816H)
Protocol: as §1

various enzymes [30] = biological target: various enzymes (Homo sapiens, UniProt P21127); conditions: compound 1 uM
Protocol: as §1

various enzymes [31] = biological target: various enzymes (Homo sapiens, UniProt P04629); conditions: compound 1 uM
Protocol: as §1

various enzymes [32] = biological target: various enzymes (Homo sapiens, UniProt Q8WU08); conditions: compound 1 uM
Protocol: as §1

various enzymes [33] = biological target: various enzymes (Homo sapiens, UniProt Q16832); conditions: compound 1 uM
Protocol: as §1

various enzymes [34] = biological target: various enzymes (Homo sapiens, UniProt Q96BR1); conditions: compound 1 uM
Protocol: as §1

various enzymes [35] = biological target: various enzymes (Homo sapiens, UniProt Q9Y243); conditions: compound 1 uM
Protocol: as §1

various enzymes [36] = biological target: various enzymes (Homo sapiens, UniProt P00519, Y253F)
Protocol: as §1

various enzymes [37] = biological target: various enzymes (Homo sapiens, UniProt Q9Y2K2); conditions: compound 1 uM
Protocol: as §1

various enzymes [38] = biological target: T1, various enzymes (Homo sapiens, UniProt O14757); conditions: compound 1 uM
T1 sequence (O14757 1-476): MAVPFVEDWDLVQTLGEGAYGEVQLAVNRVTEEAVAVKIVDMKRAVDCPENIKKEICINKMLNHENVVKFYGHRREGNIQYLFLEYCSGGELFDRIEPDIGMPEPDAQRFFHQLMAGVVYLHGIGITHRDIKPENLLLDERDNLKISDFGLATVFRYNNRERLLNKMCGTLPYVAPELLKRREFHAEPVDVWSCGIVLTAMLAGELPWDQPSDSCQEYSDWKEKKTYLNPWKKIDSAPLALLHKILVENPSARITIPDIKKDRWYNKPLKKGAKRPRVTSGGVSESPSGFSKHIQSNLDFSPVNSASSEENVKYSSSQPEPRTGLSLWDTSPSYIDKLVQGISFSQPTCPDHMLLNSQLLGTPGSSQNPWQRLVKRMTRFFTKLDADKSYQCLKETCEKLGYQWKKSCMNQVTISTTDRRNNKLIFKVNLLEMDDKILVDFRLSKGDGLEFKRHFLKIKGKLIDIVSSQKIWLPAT
Protocol: as §1

Chain of various enzymes (Homo sapiens, UniProt Q9UQM7) (Q9UQM7 whole entry): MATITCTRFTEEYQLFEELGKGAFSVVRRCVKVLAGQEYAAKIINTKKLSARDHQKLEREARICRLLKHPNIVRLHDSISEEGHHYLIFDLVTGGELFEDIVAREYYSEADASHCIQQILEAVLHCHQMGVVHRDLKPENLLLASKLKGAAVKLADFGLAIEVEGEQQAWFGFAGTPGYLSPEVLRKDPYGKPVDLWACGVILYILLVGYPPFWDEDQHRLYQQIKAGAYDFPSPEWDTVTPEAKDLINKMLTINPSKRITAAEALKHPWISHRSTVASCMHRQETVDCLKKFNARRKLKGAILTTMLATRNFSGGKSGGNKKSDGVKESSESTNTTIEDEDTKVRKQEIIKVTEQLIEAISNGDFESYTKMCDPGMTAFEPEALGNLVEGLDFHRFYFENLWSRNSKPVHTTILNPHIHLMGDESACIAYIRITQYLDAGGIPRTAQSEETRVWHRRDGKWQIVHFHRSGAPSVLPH
Chain of various enzymes (Homo sapiens, UniProt P10721, V559D/V654A) (P10721 26-976 V559D/V654A): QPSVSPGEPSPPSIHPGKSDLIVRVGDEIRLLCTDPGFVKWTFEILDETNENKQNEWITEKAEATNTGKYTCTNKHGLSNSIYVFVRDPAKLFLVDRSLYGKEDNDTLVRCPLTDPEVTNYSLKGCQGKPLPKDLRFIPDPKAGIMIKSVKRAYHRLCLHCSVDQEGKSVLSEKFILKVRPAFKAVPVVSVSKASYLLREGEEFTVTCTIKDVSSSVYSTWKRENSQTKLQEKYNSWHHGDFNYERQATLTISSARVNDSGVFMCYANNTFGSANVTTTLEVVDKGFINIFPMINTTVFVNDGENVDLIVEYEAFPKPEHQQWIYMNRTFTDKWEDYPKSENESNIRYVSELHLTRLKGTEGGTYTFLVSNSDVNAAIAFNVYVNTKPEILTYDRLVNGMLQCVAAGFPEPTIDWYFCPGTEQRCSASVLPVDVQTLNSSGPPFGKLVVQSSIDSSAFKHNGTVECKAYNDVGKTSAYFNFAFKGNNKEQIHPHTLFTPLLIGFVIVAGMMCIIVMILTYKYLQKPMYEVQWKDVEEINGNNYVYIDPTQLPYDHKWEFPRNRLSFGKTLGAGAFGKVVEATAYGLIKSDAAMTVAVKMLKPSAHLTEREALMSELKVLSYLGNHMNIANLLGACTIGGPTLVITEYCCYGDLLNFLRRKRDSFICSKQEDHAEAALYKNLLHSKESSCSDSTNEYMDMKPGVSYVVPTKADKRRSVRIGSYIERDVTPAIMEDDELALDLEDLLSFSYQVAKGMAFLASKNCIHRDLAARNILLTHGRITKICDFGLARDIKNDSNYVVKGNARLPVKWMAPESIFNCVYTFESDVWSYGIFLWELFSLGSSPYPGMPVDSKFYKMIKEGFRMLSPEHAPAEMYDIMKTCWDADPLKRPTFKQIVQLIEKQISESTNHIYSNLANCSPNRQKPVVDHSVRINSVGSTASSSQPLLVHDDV
Chain of various enzymes (Homo sapiens, UniProt Q5S007) (Q5S007 whole entry): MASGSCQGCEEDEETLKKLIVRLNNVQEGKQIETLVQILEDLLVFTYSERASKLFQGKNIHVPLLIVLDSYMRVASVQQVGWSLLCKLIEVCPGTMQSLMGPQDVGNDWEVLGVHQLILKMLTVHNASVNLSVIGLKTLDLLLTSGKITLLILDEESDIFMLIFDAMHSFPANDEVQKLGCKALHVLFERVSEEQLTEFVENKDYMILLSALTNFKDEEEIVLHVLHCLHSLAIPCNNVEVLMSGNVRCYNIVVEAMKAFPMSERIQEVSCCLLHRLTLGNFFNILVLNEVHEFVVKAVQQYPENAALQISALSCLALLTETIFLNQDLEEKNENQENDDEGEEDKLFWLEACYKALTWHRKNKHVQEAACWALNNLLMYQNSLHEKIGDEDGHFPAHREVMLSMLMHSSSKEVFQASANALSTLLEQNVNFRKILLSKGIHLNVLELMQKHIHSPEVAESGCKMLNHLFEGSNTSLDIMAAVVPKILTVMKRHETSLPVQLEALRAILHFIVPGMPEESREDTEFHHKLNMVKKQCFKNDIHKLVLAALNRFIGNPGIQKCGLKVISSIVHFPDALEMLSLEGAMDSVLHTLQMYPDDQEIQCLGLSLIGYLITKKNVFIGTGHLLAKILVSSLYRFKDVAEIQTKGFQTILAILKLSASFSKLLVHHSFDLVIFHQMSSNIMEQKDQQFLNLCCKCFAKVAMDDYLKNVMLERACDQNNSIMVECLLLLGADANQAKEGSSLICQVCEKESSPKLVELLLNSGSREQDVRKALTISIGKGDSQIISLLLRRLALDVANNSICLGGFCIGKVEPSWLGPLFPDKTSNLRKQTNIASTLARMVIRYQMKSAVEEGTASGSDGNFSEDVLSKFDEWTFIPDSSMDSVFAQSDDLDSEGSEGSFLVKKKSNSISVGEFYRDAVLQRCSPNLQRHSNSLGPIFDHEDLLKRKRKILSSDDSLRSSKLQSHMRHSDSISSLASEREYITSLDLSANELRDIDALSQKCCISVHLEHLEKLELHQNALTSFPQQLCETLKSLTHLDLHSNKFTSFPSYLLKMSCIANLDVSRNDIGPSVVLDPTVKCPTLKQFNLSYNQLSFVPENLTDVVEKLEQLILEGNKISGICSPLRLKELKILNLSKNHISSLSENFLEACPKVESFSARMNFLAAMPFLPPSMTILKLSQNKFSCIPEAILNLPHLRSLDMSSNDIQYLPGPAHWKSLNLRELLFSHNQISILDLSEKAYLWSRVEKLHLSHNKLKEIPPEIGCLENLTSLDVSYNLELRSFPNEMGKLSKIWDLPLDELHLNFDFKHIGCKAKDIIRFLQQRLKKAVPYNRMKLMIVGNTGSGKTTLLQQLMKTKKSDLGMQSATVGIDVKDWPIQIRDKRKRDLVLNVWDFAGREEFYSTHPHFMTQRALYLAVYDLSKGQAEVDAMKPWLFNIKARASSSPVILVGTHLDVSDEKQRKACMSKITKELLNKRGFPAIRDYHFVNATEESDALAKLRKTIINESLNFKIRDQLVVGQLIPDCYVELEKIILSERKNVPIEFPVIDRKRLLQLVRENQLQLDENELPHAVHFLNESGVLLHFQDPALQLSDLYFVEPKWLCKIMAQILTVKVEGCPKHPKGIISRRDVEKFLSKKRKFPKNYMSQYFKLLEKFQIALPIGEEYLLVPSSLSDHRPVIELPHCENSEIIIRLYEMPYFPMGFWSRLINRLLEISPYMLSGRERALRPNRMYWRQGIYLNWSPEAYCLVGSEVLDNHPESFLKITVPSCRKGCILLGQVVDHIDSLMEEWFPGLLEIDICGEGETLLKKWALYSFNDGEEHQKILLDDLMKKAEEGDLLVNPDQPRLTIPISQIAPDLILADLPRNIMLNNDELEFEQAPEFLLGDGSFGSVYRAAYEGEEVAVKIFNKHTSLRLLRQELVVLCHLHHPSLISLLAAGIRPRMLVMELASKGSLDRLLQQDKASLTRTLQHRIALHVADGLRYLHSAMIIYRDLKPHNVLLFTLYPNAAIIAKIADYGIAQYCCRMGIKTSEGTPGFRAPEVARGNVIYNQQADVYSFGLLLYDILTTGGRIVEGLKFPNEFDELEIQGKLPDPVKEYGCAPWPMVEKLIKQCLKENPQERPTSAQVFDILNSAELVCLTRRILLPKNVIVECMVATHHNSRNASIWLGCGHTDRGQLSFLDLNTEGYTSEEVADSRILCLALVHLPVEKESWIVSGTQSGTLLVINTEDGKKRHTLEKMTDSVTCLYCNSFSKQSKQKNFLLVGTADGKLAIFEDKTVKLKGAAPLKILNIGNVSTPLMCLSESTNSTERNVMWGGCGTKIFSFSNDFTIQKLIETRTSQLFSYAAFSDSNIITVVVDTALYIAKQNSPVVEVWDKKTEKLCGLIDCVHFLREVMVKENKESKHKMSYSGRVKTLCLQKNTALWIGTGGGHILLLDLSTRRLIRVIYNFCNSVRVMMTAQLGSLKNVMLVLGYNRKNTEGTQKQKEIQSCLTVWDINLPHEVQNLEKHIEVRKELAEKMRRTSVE
Chain of various enzymes (Homo sapiens, UniProt P15056, V600E) (P15056 whole entry V600E): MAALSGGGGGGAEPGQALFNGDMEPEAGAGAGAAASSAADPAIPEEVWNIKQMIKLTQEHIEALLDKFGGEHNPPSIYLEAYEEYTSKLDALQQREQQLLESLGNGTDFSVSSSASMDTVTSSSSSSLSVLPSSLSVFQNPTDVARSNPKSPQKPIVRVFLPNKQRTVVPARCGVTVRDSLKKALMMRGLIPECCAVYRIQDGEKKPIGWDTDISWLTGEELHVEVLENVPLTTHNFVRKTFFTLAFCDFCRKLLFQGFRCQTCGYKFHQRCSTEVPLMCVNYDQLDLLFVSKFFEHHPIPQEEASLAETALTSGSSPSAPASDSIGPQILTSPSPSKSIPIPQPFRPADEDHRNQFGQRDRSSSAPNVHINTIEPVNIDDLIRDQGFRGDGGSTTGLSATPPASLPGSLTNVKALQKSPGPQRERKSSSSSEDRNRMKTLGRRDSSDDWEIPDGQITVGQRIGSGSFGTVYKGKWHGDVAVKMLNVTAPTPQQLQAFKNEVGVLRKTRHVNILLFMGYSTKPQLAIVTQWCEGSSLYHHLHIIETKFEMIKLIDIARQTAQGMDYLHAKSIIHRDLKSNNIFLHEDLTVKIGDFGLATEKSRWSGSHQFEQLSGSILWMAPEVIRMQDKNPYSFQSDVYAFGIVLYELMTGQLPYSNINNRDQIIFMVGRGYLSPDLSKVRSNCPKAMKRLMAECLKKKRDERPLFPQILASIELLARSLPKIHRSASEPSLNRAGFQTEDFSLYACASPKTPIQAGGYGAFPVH
Chain of various enzymes (Homo sapiens, UniProt Q8WU08) (Q8WU08 whole entry): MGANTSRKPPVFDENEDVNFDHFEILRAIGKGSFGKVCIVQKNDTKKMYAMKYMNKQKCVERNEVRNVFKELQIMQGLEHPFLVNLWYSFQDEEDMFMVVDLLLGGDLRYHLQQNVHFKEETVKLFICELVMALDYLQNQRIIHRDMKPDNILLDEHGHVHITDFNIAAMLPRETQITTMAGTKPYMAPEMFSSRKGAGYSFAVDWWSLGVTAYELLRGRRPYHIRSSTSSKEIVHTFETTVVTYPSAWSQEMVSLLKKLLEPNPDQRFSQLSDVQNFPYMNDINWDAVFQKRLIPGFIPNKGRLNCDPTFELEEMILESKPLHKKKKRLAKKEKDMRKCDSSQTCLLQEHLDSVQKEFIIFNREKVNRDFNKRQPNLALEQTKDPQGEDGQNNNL

Compound	Ambit profiling: PAK1 (various enzymes [3])	Ambit profiling: TGFBR1 (various enzymes [4])	Ambit profiling: SLK (various enzymes [5])	Ambit profiling: ACVR2B (various enzymes [6])	Ambit profiling: TNIK (various enzymes [7])	Ambit profiling: TNK1 (various enzymes [8])	Ambit profiling: LRRK2 (various enzymes [10])	Ambit profiling: TTK (various enzymes [11])	Ambit profiling: CAMK2A (various enzymes [12])	Ambit profiling: IKK-alpha (various enzymes [13])	Ambit profiling: SBK1 (various enzymes [14])	Ambit profiling: MYLK (various enzymes [16])	Ambit profiling: FGFR2 (various enzymes [17])	Ambit profiling: CSNK1E (various enzymes [18])	Ambit profiling: WNK2 (various enzymes [19])	Ambit profiling: AAK1 (various enzymes [20])	Ambit profiling: PAK7 (various enzymes [21])	Ambit profiling: PRKCQ (various enzymes [22])	Ambit profiling: VEGFR2 (various enzymes [23])	Ambit profiling: MTOR (various enzymes [24])	further results
CC(C)N1Cc2nn(C)cc2-c2cnc3[nH]cc(c3c2)-c2cn(nc2C(F)(F)F)CCCC1=O [Compound 45, (Z)-5-isopropyl-31-methyl-13-(trifluoromethyl)-11H,21H,31H-5-aza-2(3,5)-pyrrolo[2,3-b]pyridina-1(4,1),3(4,3)-dipyrazolacyclononaphan-6-one]	69	87	2.8	79	5.6	12	44	20	7.7	100	100	37	9.5	23	64	40	51	27	2	69	Ambit profiling: BRAF(V600E) (various enzymes [1]; compound 1 uM): 100; Ambit profiling: KIT(V559D, V654A) (various enzymes [2]; compound 1 uM): 100; Ambit profiling: EGFR(L861Q) (various enzymes [9]; compound 1 uM): 28; Ambit profiling: KIT(A829P) (various enzymes [15]; compound 1 uM): 14; Ambit profiling: PIKFYVE (various enzymes [25]): 13; Ambit profiling: YANK3 (various enzymes [26]): 100; Ambit profiling: CAMK4 (various enzymes [27]): 100; Ambit profiling: CDKL5 (various enzymes [28]): 68; Ambit profiling: KIT(D816H) (various enzymes [29]; compound 1 uM): 35; Ambit profiling: CDC2L1 (various enzymes [30]): 100; Ambit profiling: TRKA (various enzymes [31]): 0; Ambit profiling: YANK1 (various enzymes [32]): 100; Ambit profiling: DDR2 (various enzymes [33]): 13; Ambit profiling: SGK3 (various enzymes [34]): 30; Ambit profiling: AKT3 (various enzymes [35]): 100; Ambit profiling: ABL1(V253F)-phosphorylated (various enzymes [36]; compound 1 uM): 76; Ambit profiling: QSK (various enzymes [37]): 32; Ambit profiling: CHEK1 (various enzymes [38]): 100
COc1c2c(nn1C)CN(C(C)C)C(=O)CCCn1cc(c(C(F)(F)F)n1)-c1c[nH]c3ncc-2cc13 [Compound 50, (Z)-5-isopropyl-35-methoxy-31-methyl-13-(trifluoromethyl)-11H,21H,31H-5-aza-2(3,5)-pyrrolo[2,3-b]pyridina-1(4,1),3(4,3)-dipyrazolacyclononaphan-6-one]	76	36	0.4	92	13	28	50	23	12	83	98	14	11	13	46	43	100	13	0.8	98	Ambit profiling: BRAF(V600E) (various enzymes [1]): 93; Ambit profiling: KIT(V559D, V654A) (various enzymes [2]): 70; Ambit profiling: EGFR(L861Q) (various enzymes [9]): 17; Ambit profiling: KIT(A829P) (various enzymes [15]): 19; Ambit profiling: PIKFYVE (various enzymes [25]): 11; Ambit profiling: YANK3 (various enzymes [26]): 74; Ambit profiling: CAMK4 (various enzymes [27]): 100; Ambit profiling: CDKL5 (various enzymes [28]): 100; Ambit profiling: KIT(D816H) (various enzymes [29]): 4.5; Ambit profiling: CDC2L1 (various enzymes [30]): 73; Ambit profiling: TBKA (various enzymes [31]): 0; Ambit profiling: YANK1 (various enzymes [32]): 24; Ambit profiling: DDR2 (various enzymes [33]): 32; Ambit profiling: SGK3 (various enzymes [34]): 50; Ambit profiling: AKT3 (various enzymes [35]): 100; Ambit profiling: ABL1(Y253F)-phosphorylated (various enzymes [36]): 10; Ambit profiling: QSK (various enzymes [37]): 73; Ambit profiling: CHEK1 (various enzymes [38]): 100
